From ChEMBL document CHEMBL6153048, “Synthesis and pharmacological evaluation of natural product diphyllin derivatives against head and neck squamous cell carcinoma” (Eur J Med Chem, 2025) come the findings set out here.

The source made the active and inactive calls. The calls are words filed in the database; no cut-off is given here.

For data set [1], the system named is CAL-27. Put plainly: Effect on epithelial cell proliferation in human CAL-27 cells assessed as regulation of cell proliferation related gene expression at 1 nM incubated for 48 hrs by GO analysis. It is filed as functional, cell-based.
Data set [2] relates to CAL-27. Put plainly: Induction of apoptosis in human CAL-27 cells assessed as late apoptotic cells at 1000 nM incubated for 72 hrs by Annexin V-FITC/propidium iodide staining based flow cytometry analysis (reference value: 1.82%). It is filed as functional.
In data set [3] the test system is CAL-27. Put plainly: Induction of cell cycle arrest in human CAL-27 cells assessed as accumulation of cells at G1 phase at 1 to 1000 nM incubated for 48 hrs by flow cytometry analysis (Rvb= 58.6%). The data set is classed as functional. The note with it: dose 1-1000 nM.
Data set [4] deals with CAL-27. The data set is described as follows: Induction of apoptosis in human CAL-27 cells assessed as viable cells at 1 nM incubated for 72 hrs by Annexin V-FITC/propidium iodide staining based flow cytometry analysis (reference value: 90.41%). The note with it: read-out: Activity. The data set is classed as functional.
The subject of data set [5] is CAL-27. Put plainly: Induction of apoptosis in human CAL-27 cells assessed as viable cells at 100 nM incubated for 72 hrs by Annexin V-FITC/propidium iodide staining based flow cytometry analysis (reference value: 90.41%). The data set is classed as functional. Conditions: read-out: Activity.
The test system of data set [6] is CAL-27. The data set is described as follows: Induction of apoptosis in human CAL-27 cells assessed as apoptotic cells at 1 nM incubated for 72 hrs by Annexin V-FITC/propidium iodide staining based flow cytometry analysis (reference value: 10.29%). It is filed as functional.
Data set [7] deals with CAL-27. The data set is described as follows: Induction of apoptosis in human CAL-27 cells assessed as late apoptotic cells at 1 nM incubated for 72 hrs by Annexin V-FITC/propidium iodide staining based flow cytometry analysis (reference value: 1.82%). The data set is classed as functional.
Data set [8] is described as follows: Toxicity in BALB/c mouse xenografted with human CAL-27 cells assessed as body weight at 0.6 mg/kg, iv treated four times a week for 30 days. It is filed as organism-based. The note with it: in vivo, 720 h, time 30 day.
Data set [9] concerns CAL-27. The data set is described as follows: Antitumor activity against human CAL-27 cells xenografted in BALB/c mouse model assessed as reduction in nuclear division at 0.6 mg/kg, iv treated four times a week for 30 days by HE staining analysis. It is filed as functional, organism-based. The note with it: time 30.0 day.
Data set [10] concerns CAL-27. The data set is described as follows: Induction of apoptosis in human CAL-27 cells assessed as late apoptotic cells at 10 nM incubated for 72 hrs by Annexin V-FITC/propidium iodide staining based flow cytometry analysis (reference value: 1.82%). The data set is classed as functional.
Data set [11] has as its system CAL-27. The data set is described as follows: Induction of apoptosis in human CAL-27 cells assessed as early apoptotic cells at 10 nM incubated for 72 hrs by Annexin V-FITC/propidium iodide staining based flow cytometry analysis (reference value: 7.74%). The data set is classed as functional.
Data set [12] deals with CAL-27. The data set is described as follows: Effect on apoptosis in human CAL-27 cells assessed as regulation of gene expression at 1 nM incubated for 48 hrs by GSEA analysis. It is filed as functional, cell-based.
Data set [13] deals with CAL-27. Put plainly: Antiproliferative activity against human CAL-27 cells assessed as inhibition of cell communities at 1 uM treated for 11 days by plate clone formation assay. The note with it: time 11.0 day. It is filed as functional, cell-based.
Data set [14] relates to CAL-27. The data set is described as follows: Antitumor activity against human CAL-27 cells xenografted in BALB/c mouse model assessed as reduction in tumor weight at 0.3 mg/kg, iv treated four times a week for 30 days. It is filed as functional. More on the design: scale not given: the % may be the effect or the level left. The note with it: time 30 day.
Data set [15] has as its system CAL-27. The data set is described as follows: Induction of cell cycle arrest in human CAL-27 cells assessed as accumulation of cells at S phase at 1 to 1000 nM incubated for 48 hrs by flow cytometry analysis (Rvb=18%). The data set is classed as functional. The note with it: dose 1-1000 nM.
For data set [16], the system named is CAL-27. The data set is described as follows: Effect on cell cycle in human CAL-27 cells assessed as regulation of gene expression at 1 nM incubated for 48 hrs by GSEA analysis. It is filed as functional, cell-based.
The subject of data set [17] is CAL-27. Put plainly: Induction of apoptosis in human CAL-27 cells assessed as early apoptotic cells at 1 nM incubated for 72 hrs by Annexin V-FITC/propidium iodide staining based flow cytometry analysis (reference value: 7.74%). The data set is classed as functional.
For data set [18], the system named is CAL-27. The data set is described as follows: Induction of apoptosis in human CAL-27 cells assessed as late apoptotic cells at 100 nM incubated for 72 hrs by Annexin V-FITC/propidium iodide staining based flow cytometry analysis (reference value: 1.82%). The data set is classed as functional.
Data set [19] has as its system CAL-27. The data set is described as follows: Induction of apoptosis in human CAL-27 cells assessed as apoptotic cells at 100 nM incubated for 72 hrs by Annexin V-FITC/propidium iodide staining based flow cytometry analysis (reference value: 10.29%). The data set is classed as functional.
Data set [20] can be described thus: Toxicity in BALB/c mouse xenografted with human CAL-27 cells assessed as body weight at 0.3 mg/kg, iv treated four times a week for 30 days. It is filed as organism-based. Conditions: in vivo, 720 h, time 30 day.
For data set [21], the system named is CAL-27. The data set is described as follows: Induction of apoptosis in human CAL-27 cells assessed as viable cells at 10 nM incubated for 72 hrs by Annexin V-FITC/propidium iodide staining based flow cytometry analysis (reference value: 90.41%). It is filed as functional. Conditions: read-out: Activity.
The test system of data set [22] is CAL-27. Put plainly: Effect on cell adhesion molecule in human CAL-27 cells assessed as regulation of gene expression at 1 nM incubated for 48 hrs by GSEA analysis. It is filed as functional, cell-based.
Data set [23] deals with CAL-27. The data set is described as follows: Induction of apoptosis in human CAL-27 cells assessed as viable cells at 1000 nM incubated for 72 hrs by Annexin V-FITC/propidium iodide staining based flow cytometry analysis (reference value: 88.23%). Conditions: read-out: Activity. It is filed as functional.
The test system of data set [24] is CAL-27. The data set is described as follows: Induction of apoptosis in human CAL-27 cells assessed as viable cells at 10 nM incubated for 72 hrs by Annexin V-FITC/propidium iodide staining based flow cytometry analysis (reference value: 88.23%). It is filed as functional. The note with it: read-out: Activity.
The test system of data set [25] is CAL-27. Put plainly: Induction of apoptosis in human CAL-27 cells assessed as early apoptotic cells at 100 nM incubated for 72 hrs by Annexin V-FITC/propidium iodide staining based flow cytometry analysis (reference value: 9.16%). It is filed as functional.
Data set [26] deals with CAL-27. Put plainly: Induction of apoptosis in human CAL-27 cells assessed as early apoptotic cells at 10 nM incubated for 72 hrs by Annexin V-FITC/propidium iodide staining based flow cytometry analysis (reference value: 9.16%). The data set is classed as functional.
Data set [27] relates to CAL-27. Put plainly: Induction of apoptosis in human CAL-27 cells assessed as early apoptotic cells at 1 nM incubated for 72 hrs by Annexin V-FITC/propidium iodide staining based flow cytometry analysis (reference value: 9.16%). The data set is classed as functional.
Data set [28] concerns CAL-27. The data set is described as follows: Induction of apoptosis in human CAL-27 cells assessed as late apoptotic cells at 1 nM incubated for 72 hrs by Annexin V-FITC/propidium iodide staining based flow cytometry analysis (reference value: 2.57%). It is filed as functional.
Data set [29] has as its system CAL-27. Put plainly: Induction of apoptosis in human CAL-27 cells assessed as late apoptotic cells at 10 nM incubated for 72 hrs by Annexin V-FITC/propidium iodide staining based flow cytometry analysis (reference value: 2.57%). It is filed as functional.
Data set [30] relates to CAL-27. The data set is described as follows: Induction of apoptosis in human CAL-27 cells assessed as late apoptotic cells at 1000 nM incubated for 72 hrs by Annexin V-FITC/propidium iodide staining based flow cytometry analysis (reference value: 2.57%). The data set is classed as functional.
Data set [31] relates to CAL-27. The data set is described as follows: Induction of apoptosis in human CAL-27 cells assessed as early apoptotic cells at 1000 nM incubated for 72 hrs by Annexin V-FITC/propidium iodide staining based flow cytometry analysis (reference value: 9.16%). It is filed as functional.
For data set [32], the system named is CAL-27. The data set is described as follows: Induction of apoptosis in human CAL-27 cells assessed as viable cells at 100 nM incubated for 72 hrs by Annexin V-FITC/propidium iodide staining based flow cytometry analysis (reference value: 88.23%). The data set is classed as functional. Conditions: read-out: Activity.
The subject of data set [33] is CAL-27. The data set is described as follows: Induction of apoptosis in human CAL-27 cells assessed as late apoptotic cells at 100 nM incubated for 72 hrs by Annexin V-FITC/propidium iodide staining based flow cytometry analysis (reference value: 2.57%). The data set is classed as functional.

For the compound `COc1cc2c(O[C@@H]3O[C@@H]4CO[C@@H](c5ccsc5)O[C@H]4[C@H](O)[C@H]3O)c3c(c(-c4ccc5c(c4)OCO5)c2cc1OC)C(=O)OC3`, the outcome with CAL-27 [1], in the data set with CAL-27 [9], in the data set with CAL-27 [12], in the data set with CAL-27 [16] and in the data set on CAL-27 [22] was Active. Moreover, the Activity in the data set with CAL-27 [2] was 36.94%; with CAL-27 [3], 78.7%; with CAL-27 [6] it was 15.78%; in the data set on CAL-27 [7] it was 2.19%; in [8] it was “Non-toxic”; in the data set with CAL-27 [10] it was 25.74%. Further, the Activity in the data set with CAL-27 [11] is 16.27%; with CAL-27 [13], “Active; Showed More Potent Suppression”; with CAL-27 [14], 34%; in the data set on CAL-27 [15] it was 6%; with CAL-27 [17], 4.74%; in the data set on CAL-27 [18], 41.19%. The figures for the Activity (in the data set on CAL-27 [19]; in data set [20]) were 50.9% and “Non-toxic”, respectively. The viability at 0.001 µM in the data set with CAL-27 [4] was determined as 93%. For the same compound, the viability at 0.1 µM in the data set with CAL-27 [5] was 28.6%. The viability at 0.01 µM in the data set on CAL-27 [21] was found to be 55%.

In the case of `COc1cc2c(O)c3c(c(-c4ccc5c(c4)OCO5)c2cc1OC)C(=O)OC3` [DIPHYLLIN], the viability at 1 µM in the data set on CAL-27 [23] was 82.8%. Besides, the viability at 0.01 µM in the data set on CAL-27 [24] came to 94.8%. Moreover, the Activity was determined as 4.87% in the data set with CAL-27 [25]; 3.78% with CAL-27 [26]; 2.68% in the data set with CAL-27 [27]; 5.83% with CAL-27 [28]; 1.34% with CAL-27 [29]; 5.03% with CAL-27 [30]. Moreover, the Activity in the data set with CAL-27 [31] is given as 12.06%; with CAL-27 [33], 2.58%. For the same compound, the viability at 0.1 µM with CAL-27 [32] is 92.5%.
